Values quoted from earlier work, collected in patent publication US20060234348A1, “Method of production of RNA polymerase protein” (priority 2005, published 2006).

Molecular target: T1, RNase A (Bos taurus, UniProt P61823)
T1 sequence (P61823 27-150): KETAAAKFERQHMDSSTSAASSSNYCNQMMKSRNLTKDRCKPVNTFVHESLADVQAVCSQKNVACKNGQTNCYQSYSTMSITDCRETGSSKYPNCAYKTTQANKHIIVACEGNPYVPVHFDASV
Conditions: RNase A 10 μg/ml, 4 mM DTT, 4° C. for 20 minutes

Structure (SMILES): O[C@H](CS)[C@H](O)CS (racemic) [DTT, dithiothreitol]
- conversion of polyribosomes to monoribosomes by RNase A: reduced the conversion of polyribosomes to monoribosomes
